Measurements from PMC6928863, “Development of Human Serum Albumin Selective Fluorescent Probe Using Thieno[3,2-b]pyridine-5(4H)-one Fluorophore Derivatives” (Sensors (Basel, Switzerland), 2019).

Target: T1, human serum albumin (HSA) (Homo sapiens, UniProt P02768)
T1 construct: gene ALB
Assay: fluorescence titration (one-site fit), Job's plot […], site-marker displacement
Format: binding

T1 sequence (P02768 25-609): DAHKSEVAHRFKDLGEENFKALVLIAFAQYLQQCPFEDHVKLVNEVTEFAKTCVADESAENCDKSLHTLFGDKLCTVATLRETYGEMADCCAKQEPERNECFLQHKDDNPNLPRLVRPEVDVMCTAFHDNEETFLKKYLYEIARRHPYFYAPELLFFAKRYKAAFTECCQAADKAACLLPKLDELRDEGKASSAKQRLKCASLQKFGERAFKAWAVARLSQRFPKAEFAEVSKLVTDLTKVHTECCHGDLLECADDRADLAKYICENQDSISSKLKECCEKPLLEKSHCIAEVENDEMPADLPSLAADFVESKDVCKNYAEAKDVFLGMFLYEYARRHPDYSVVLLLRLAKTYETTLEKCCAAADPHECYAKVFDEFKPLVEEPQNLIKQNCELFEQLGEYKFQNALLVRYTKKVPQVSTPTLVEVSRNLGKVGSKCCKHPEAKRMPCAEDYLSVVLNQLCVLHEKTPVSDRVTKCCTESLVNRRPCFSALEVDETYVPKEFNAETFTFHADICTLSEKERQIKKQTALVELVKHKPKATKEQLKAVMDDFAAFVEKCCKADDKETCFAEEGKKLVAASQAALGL

- Kd: 5.4 µM
Structure (SMILES): CCN(CC)c1ccc(-c2cc3c(s2)c(C(=O)O)cc(=O)n3C)cc1 [compound 4, KF 4]
